For 61 molecules, IC50 results are on record in patent publication US20120207763A1, “PYRROLOPYRIMIDINE COMPOUNDS AND THEIR USES” (ASTEX THERAPEUTICS LIMITED, priority 2006, published 2012).

Where only a bound is given, the exact number is not on record here.

hCDK1/B, sequence (P06493 whole entry): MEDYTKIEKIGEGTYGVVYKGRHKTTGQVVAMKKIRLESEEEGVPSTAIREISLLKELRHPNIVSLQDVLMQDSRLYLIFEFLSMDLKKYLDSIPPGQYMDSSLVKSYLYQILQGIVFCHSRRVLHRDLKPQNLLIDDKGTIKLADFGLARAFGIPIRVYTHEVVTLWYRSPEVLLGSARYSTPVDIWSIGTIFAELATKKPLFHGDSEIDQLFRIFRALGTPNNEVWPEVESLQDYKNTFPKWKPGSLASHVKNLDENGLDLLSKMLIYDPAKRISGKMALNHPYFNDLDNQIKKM
hCDK1/B, sequence (P14635 whole entry partner): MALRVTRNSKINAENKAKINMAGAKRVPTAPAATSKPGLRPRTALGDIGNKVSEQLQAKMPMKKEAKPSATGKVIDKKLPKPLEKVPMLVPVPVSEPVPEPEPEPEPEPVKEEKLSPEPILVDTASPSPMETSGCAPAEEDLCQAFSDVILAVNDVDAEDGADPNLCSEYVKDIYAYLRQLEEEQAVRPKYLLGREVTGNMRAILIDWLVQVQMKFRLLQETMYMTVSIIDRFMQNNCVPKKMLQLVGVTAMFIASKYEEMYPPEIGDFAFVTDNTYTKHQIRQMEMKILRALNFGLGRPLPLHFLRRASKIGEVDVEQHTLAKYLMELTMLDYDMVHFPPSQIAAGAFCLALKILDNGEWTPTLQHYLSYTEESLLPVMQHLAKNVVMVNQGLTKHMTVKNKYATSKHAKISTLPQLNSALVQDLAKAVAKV

The first test deals with CDK2/Cyclin-A kinase complex (Homo sapiens, UniProt P24941). As to the kind of experiment: CDK2 IMAP fluorescence polarization assay. It is filed as biochemical. The settings on record: Table E; read-out: CDK2cyA IMAP/IC50 [umol l − 1]. Summed up:
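Fluorescence polarization (IMAP) using purified active CDK2/Cyclin-A complex with a TAMRA-tagged Histone H1-derived peptide substrate; phosphorylated peptide bound by a metal-containing reagent raises polarization. Inhibition read as reduced fluorescence polarization signal.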
A general note: Fluorescence polarisation rises when a labelled molecule tumbles more slowly, as on binding a larger partner.
Consider `Cc1cn(C2CCCC2)c2nc(Nc3ccc4[nH]ncc4c3)ncc12` [Example 281], for which the IC50 is below 10000 nM.

`CCC(CC)n1c(CNCc2ccco2)cc2cnc(Nc3ccc(N4CCN(C(C)=O)CC4)cc3)nc21` [Example 449]: the IC50 was below 10000 nM. On the same count and under the same terms, next, `Cc1cn(C2CCCC2)c2nc(Nc3ccc(C(=O)N4CCOCC4)cc3)ncc12` [Example 292]: below 10000 nM; `Cc1cn(C2CCCC2)c2nc(Nc3ccc(N4CCCCC4)cc3)ncc12` [Example 278]: above 10000 nM.

A further test addresses hCDK1/B (Homo sapiens, UniProt P06493). As to the kind of experiment: hCDK1/B assay. It is filed as biochemical. The conditions noted are these: Table E; read-out: hCDK1/B/IC50 [umol l − 1].
`Cc1cn(C2CCCC2)c2nc(Nc3ccc4[nH]ncc4c3)ncc12` [Example 281]: the IC50 was below 10000 nM.

Take `CCC(CC)n1c(CNCc2ccco2)cc2cnc(Nc3ccc(N4CCN(C(C)=O)CC4)cc3)nc21` [Example 449]: the IC50 was below 10000 nM.

`Cc1cn(C2CCCC2)c2nc(Nc3ccc(C(=O)N4CCOCC4)cc3)ncc12` [Example 292]: the IC50 is below 10000 nM.

As to `Cc1cn(C2CCCC2)c2nc(Nc3ccc(N4CCCCC4)cc3)ncc12` [Example 278], the IC50 was above 10000 nM.

Take `Cc1cn(C2CCCC2)c2nc(Nc3ccc(N4CCNCC4)cn3)ncc12` [Example 267]: the IC50 was above 10000 nM.

In another test the target is T1, JAK-3 (Homo sapiens, UniProt P52333).
T1 construct: GST fusion constructs of the kinase domains of both enzymes are used; GST
T1 sequence (P52333 822-1111 limits assumed): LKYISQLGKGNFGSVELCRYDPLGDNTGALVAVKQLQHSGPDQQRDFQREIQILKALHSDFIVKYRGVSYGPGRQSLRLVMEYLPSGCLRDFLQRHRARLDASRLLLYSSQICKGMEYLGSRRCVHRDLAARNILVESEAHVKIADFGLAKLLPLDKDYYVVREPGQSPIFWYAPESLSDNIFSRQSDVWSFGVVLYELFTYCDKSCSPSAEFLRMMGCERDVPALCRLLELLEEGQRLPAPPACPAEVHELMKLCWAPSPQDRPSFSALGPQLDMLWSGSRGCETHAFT
As to the kind of experiment: JAK LANCE enzymatic assay (JAK-3). It is filed as biochemical. The settings on record: Table A; read-out: Jak-3/ IC50. From the text: Binding of cytokines and certain growth factors to their respective receptors trigger activation of Janus kinases, which phosphorylate members of the STAT family. Phosphorylated STAT molecules dimerize and migrate to the nucleus where they bind to DNA and initiate transcription of responsive genes. Inhibitors of pathways downstream of cytokine/growth factor receptors have therapeutic potential for several indications. An enzymatic assay for JAK-3 and JAK-2 has been developed to identify T-cell selective inhibitors. GST fusion constructs of the kinase domains of both enzymes are used and a biotinylated, tyrosine containing peptide serves as substrate. Phosphorylation of this peptide by the respective kinase is quantified with an europium-labeled anti-phosphotyrosine antibody (Eu-PT66) as energy donor and a streptavidin-allophycocyanine conjugate (SA-APC) as energy acceptor. The assay has been established in a 384 well format.
In the JAK LANCE™ assay, a biotinylated peptide is incubated together with compounds and ATP in buffer. The phosphorylation reaction starts after addition of JAK kinase. After incubation at RT the reaction is stopped with EDTA and the product detected by addition Streptavidin-Allophycocyanin and Europium-labeled antiphosphotyrosine antibody. The signal is measured using an EnVision Reader. Exc: 320 nm, Em, Donor: 615 nm and Em, Acceptor: 665 nm in time resolved fashion with a delay of […].
Background: TR-FRET usually uses a lanthanide donor and a delayed reading to cut background.
As for `CN1CCN(c2ccc(Nc3ncc4c(n3)N(C3CCCC3)C(=O)C4)cc2)CC1`, the IC50 is at least 100 nM. The same measure, in the same setting: the value for `CCC(CC)N1C(=O)Cc2cnc(Nc3cc(C(=O)N4CCOCC4)ccc3OC)nc21` was at least 100 nM. For the molecule `CCC(c1ccccc1)N1C(=O)Cc2cnc(Nc3cccc(OCCN4CCCC4)c3)nc21` (centres unmarked), the IC50 was at least 100 nM. The same measure, in the same setting: the value for `CCC(CC)n1c(=O)[nH]c2cnc(Nc3ccc(N4CCN(C)CC4)cc3)nc21` was at most 100 nM. The same measure, in the same setting: next, `CCC(c1ccccc1)N1C(=O)Cc2cnc(Nc3ccc(N4CCN(C(C)=O)CC4)cc3)nc21` (centres unmarked): at least 100 nM; `CCC(CC)N1C(=O)Cc2cnc(Nc3ccc(N4CCCCC4)cc3)nc21`: at least 100 nM; `CCC(CC)N1C(=O)Cc2cnc(Nc3cccc(C(=O)N4CCN(C)CC4)c3)nc21`: at least 100 nM. Same read-out and setting: next, `CCC(CC)n1cnc2cnc(Nc3ccc(N4CCN(C(C)=O)CC4)cc3)nc21`: at least 100 nM; `CN1CCN(c2ccc(Nc3ncc4c(n3)N(C3CCCCC3)C(=O)C4)cc2)CC1`: at most 100 nM. Regarding `CCC(CC)N1C(=O)Cc2cnc(Nc3ccc(C(=O)NCCN4CCN(C)CC4)cc3)nc21`, the IC50 is at least 100 nM. Still for that read-out and setting: next, `CCC(CC)N1C(=O)Cc2cnc(Nc3ccc(C(=O)N4CCOCC4)cc3)nc21`: at least 100 nM; `CCC(CC)N1C(=O)C(C)(C)c2cnc(Nc3ccc(N4CCN(C(C)=O)CC4)cc3)nc21`: at least 100 nM. Same read-out and setting: the value for `CCC(CC)n1c(=O)[nH]c2cnc(Nc3ccc(N4CCN(C(C)=O)CC4)cc3)nc21` was at least 100 nM; that for `CCC(CC)N1C(=O)Cc2cnc(Nc3cccc(NCCN4CCN(C)CC4)c3)nc21` was at most 100 nM; that for `COc1ccc(C(=O)N2CCOCC2)cc1Nc1ncc2c(n1)NC(=O)C2` [drawing 19] was at least 100 nM. On the same count and under the same terms, the value for `CCC(CC)N1C(=O)Cc2cnc(Nc3ccc(N4CCN(C)CC4)cn3)nc21` was at least 100 nM; that for `CCC(CC)n1ccc2cnc(Nc3cccc(OCCN4CCCC4)c3)nc21` was at most 100 nM; that for `CCC(CC)N1C(=O)Cc2cnc(Nc3ccc(N4CCN(C(C)=O)CC4)cc3)nc21` was at most 100 nM. On to `CCC(CC)N1C(=O)Cc2cnc(Nc3ccc(S(=O)(=O)Nc4ccccn4)cc3)nc21`, for which the IC50 is at least 100 nM.

As for `CCC(CC)N1C(=O)Cc2cnc(Nc3ccc(NS(=O)(=O)c4ccc(C)cc4)cc3)nc21`, the IC50 was at least 100 nM. On the same count and under the same terms, the value for `CCC(CC)n1ccc2cnc(Nc3ccc(N4CCN(C(C)=O)CC4)cn3)nc21` [drawing 81] was at least 100 nM; that for `CCC(CC)N1C(=O)Cc2cnc(Nc3ccc(N4CCN(C)CC4)cc3)nc21` was at most 100 nM. With `CC(=O)N1CCN(c2ccc(Nc3ncc(Br)c(Nc4ccccn4)n3)cc2)CC1`, the IC50 was at most 100 nM. Same read-out and setting: next, `CCC(CC)N1C(=O)Cc2cnc(Nc3cccc(C(=O)N4CCOCC4)c3)nc21`: at least 100 nM; `CCC(CC)n1ccc2cnc(Nc3ccc(N4CCN(C(C)=O)CC4)cc3)nc21` [drawing 51]: at most 100 nM; `CCC(CC)N1C(=O)Cc2cnc(Nc3ccc(C(=O)NC(C)C)cc3)nc21`: at least 100 nM. Still for that read-out and setting: the value for `O=C1Cc2cnc(Nc3ccc(N4CCOCC4)cc3)nc2N1C1CCCC1` was at least 100 nM; that for `CN1CCN(c2ccc(Nc3ncc4c(n3)N(C3CC3)C(=O)C4)cc2)CC1` was at least 100 nM; that for `CCC(CC)n1ccc2cnc(Nc3ccc(N4CCN(C)CC4)c(F)c3)nc21` [drawing 83] was at most 100 nM. Still for that read-out and setting: next, `CCC(CC)N1C(=O)Cc2cnc(Cl)nc21`: at least 100 nM; `CCC(CC)N1C(=O)Cc2cnc(Nc3cccc(OCCN(CC)CC)c3)nc21`: at least 100 nM.

As for `CCC(CC)N1C(=O)Cc2cnc(Nc3cccc(OCCN4CCN(C)CC4)c3)nc21`, the IC50 was at least 100 nM. On the same count and under the same terms, next, `COc1ccc(C(=O)N2CCN(C)CC2)cc1Nc1ncc2c(n1)NC(=O)C2` [drawing 20]: at least 100 nM.

Regarding `CCC(CC)N1C(=O)Cc2cnc(Nc3ccc(C(=O)NCCN(C)C)cc3)nc21`, the IC50 was at least 100 nM. Same read-out and setting: the value for `CCC(CC)N1C(=O)Cc2cnc(Nc3cccc(-c4nncn4C)c3)nc21` was at least 100 nM; that for `CCC(CC)N1C(=O)Cc2cnc(Nc3ccc(C(=O)NC)cc3)nc21` was at least 100 nM. On the same count and under the same terms, the value for `O=C1Cc2cnc(Nc3ccc(N4CCOCC4)cc3)nc2N1C1CC1` was at least 100 nM; that for `CCN1C(=O)Cc2cnc(Nc3ccc(N4CCN(C)CC4)cc3)nc21` was at least 100 nM. Still for that read-out and setting: next, `CCC(CC)N1C(=O)Cc2cnc(Nc3ccc4[nH]ncc4c3)nc21`: at least 100 nM; `CCC(CC)N1C(=O)Cc2cnc(Nc3cc(NC(=O)c4ccncc4)ccc3OC)nc21`: at least 100 nM; `CCC(CC)N1C(=O)Cc2cnc(Nc3ccc(N4CCOCC4)cc3)nc21`: at most 100 nM. With `CCC(CC)n1ccc2cnc(Nc3ccc(N4CCN(C)CC4)cc3)nc21`, the IC50 was at most 100 nM.

Staying with this test, now noted: Table B; read-out: Jak-3 Lance/ IC50 [nmol I-1].
In the case of `Cc1cn(C2CC2)c2nc(Nc3ccc(N4CCNCC4)cn3)ncc12` [drawing 123], the IC50 was at least 100 nM. As for `CCC(CC)n1c(C=O)cc2cnc(Nc3ccc(N4CCN(C(C)=O)CC4)cc3)nc21` [drawing 118], the IC50 was at most 100 nM. On the same count and under the same terms, the value for `CCC(CC)n1c(C)cc2cnc(Nc3ccc(N4CCNCC4)cc3)nc21` [drawing 125] was at most 100 nM; that for `CCC(CC)n1cc(C)c2cnc(Nc3ccc(N4CCN(C(C)=O)CC4)cc3)nc21` [drawing 101] was at least 100 nM; that for `Cc1cn(C2CCCCC2)c2nc(Nc3ccc(N4CCNCC4)cc3)ncc12` was at least 100 nM. On the same count and under the same terms, the value for `CC(=O)N1CCN(c2ccc(Nc3ncc4ccn(C5CCCC5)c4n3)cc2)CC1` [drawing 111] was at least 100 nM. On the same count and under the same terms, next, `CCOC(OCC)c1cc2cnc(Nc3ccc(N4CCN(C(C)=O)CC4)cc3)nc2n1C(CC)CC` [drawing 117]: at least 100 nM. Take `CCC(CC)N1C(=O)C(C)(C)c2cnc(Nc3ccc(N4CCN(C)CC4)cc3)nc21` [drawing 105]: the IC50 is at least 100 nM. Same read-out and setting: next, `Cc1cn(C2CCCCC2)c2nc(Nc3ccc(N4CCNCC4)cn3)ncc12` [drawing 127]: at least 100 nM.

Consider `CCC(CC)n1ccc2cnc(NC3CC3)nc21` [drawing 100], for which the IC50 was at least 100 nM.

Consider `CCC(CC)n1c(CO)cc2cnc(Nc3ccc(N4CCN(C(C)=O)CC4)cc3)nc21` [drawing 119], for which the IC50 is at most 100 nM. Still for that read-out and setting: the value for `CC(=O)N1CCN(c2ccc(Nc3ncc4c(C)cn(C5CCCCC5)c4n3)cc2)CC1` [drawing 120] was at least 100 nM. Still for that read-out and setting: the value for `CCC(CC)n1ccc2cnc(Nc3ccc(C(=O)NC4CCCC4)cc3)nc21` [drawing 99] was at most 100 nM. Same read-out and setting: the value for `CCC(CC)n1cc(C)c2cnc(Nc3ccc(N4CCN(C)CC4)cc3)nc21` [drawing 103] was at least 100 nM.
